Measured values from publication PMC12169608, “Peptidomimetic Phenoxymethyl Ketone Warheads as Potent Dual-Mode Inhibitors against SARS-CoV‑2 M^pro and Cathepsin” (Journal of Medicinal Chemistry, 2025).
Values after ≈ are worked out from the molar mass of the structure shown.

Assays:
[1] = target: T1, human cathepsin L (hCTSL) (Homo sapiens, UniProt P07711); test: hCTSL biochemical assay
T1 construct: purchased R&D Systems

[2] = target: human cathepsin B (hCTSB) (Homo sapiens, UniProt P07858); test: hCTSB biochemical assay
[3] = target: mouse cathepsin L (mCTSL) (Mus musculus, UniProt P06797); test: mCTSL biochemical assay; details: read-out: pIC50 (mouse CTSL) (converted)
[4] = target: mouse cathepsin B (mCTSB) (Mus musculus, UniProt P10605); test: mCTSB biochemical assay; details: read-out: pIC50 (mouse CTSB) (converted)
[5] = target: hamster CTSL (Mesocricetus auratus, UniProt Q812A7); test: hamster CTSL biochemical assay
[6] = test system: SARS-CoV-2; test: microbe, parasite or virus in culture; format: cell-based; details: Severe acute respiratory syndrome coronavirus 2, Vero C1008, read-out: SARS-CoV-2 CPE reduction assay pEC50 (converted)
[7] = target: T2, thrombin (Homo sapiens, UniProt P00734); test: Protease panel: thrombin; format: biochemical
T2 construct: preincubated with thrombin (10 nM, Sigma); purchased Sigma-Aldrich

[8] = 3 h, 2 µM
[9] = in vitro; details: African green monkey
[10] = physchem; details: pH 7.4
[11] = physchem; details: pH 7.4; remark: listed apart in the source
[12] = in vitro; details: mouse, plasma, mouse plasma protein binding
[13] = in vitro; details: mouse, hepatocytes
[14] = in vitro; details: hamster, hepatocytes; for hepatocyte CLint at 2 h, 4 µM: CLint (hamster hepatocytes + ritonavir 4:1); for hepatocyte CLint at 2 h, 2 µM: CLint (hamster hepatocytes); for half-life at 2 h, 4 µM: t1/2 (hamster hepatocytes + ritonavir 4:1)
[15] = in vitro; details: hamster, microsomes, pH 7.4
[16] = test system: trypsin; test: Protease panel: trypsin
[17] = Mouse hepatocyte stability; details: mouse, cryopreserved hepatocytes
[18] = Hamster hepatocyte stability; details: cryopreserved hepatocytes, t1/2 (hamster hepatocytes), without ritonavir
[19] = Hamster liver microsomal stability; details: microsomes, pH 7.4
[20] = target: SARS-CoV-2 M^pro (Severe acute respiratory syndrome coronavirus 2, UniProt P0DTD1); test: biochemical; format: biochemical; details: read-out: M^pro biochemical assay pIC50 (converted)
[21] = test system: luciferase-expressing VSV (ΔG) pseudotyped with Spike from SARS-CoV-2; test: microbe, parasite or virus in culture; format: cell-based; details: Vesicular stomatitis virus, Vero C1008, read-out: Entry reporter assay pEC50 (converted)
[22] = in vitro; details: mouse, microsomes, pH 7.4
[23] = Mouse liver microsomal stability; details: microsomes, pH 7.4
[24] = target: T3, Calpain-1 (Homo sapiens, UniProt P07384); test: Protease panel: Calpain-1; format: biochemical
T3 construct: erythrocytes; tissue Eurofins Discovery (assay service); host or cells: human erythrocytes
T3 sequence (P07384 1-714): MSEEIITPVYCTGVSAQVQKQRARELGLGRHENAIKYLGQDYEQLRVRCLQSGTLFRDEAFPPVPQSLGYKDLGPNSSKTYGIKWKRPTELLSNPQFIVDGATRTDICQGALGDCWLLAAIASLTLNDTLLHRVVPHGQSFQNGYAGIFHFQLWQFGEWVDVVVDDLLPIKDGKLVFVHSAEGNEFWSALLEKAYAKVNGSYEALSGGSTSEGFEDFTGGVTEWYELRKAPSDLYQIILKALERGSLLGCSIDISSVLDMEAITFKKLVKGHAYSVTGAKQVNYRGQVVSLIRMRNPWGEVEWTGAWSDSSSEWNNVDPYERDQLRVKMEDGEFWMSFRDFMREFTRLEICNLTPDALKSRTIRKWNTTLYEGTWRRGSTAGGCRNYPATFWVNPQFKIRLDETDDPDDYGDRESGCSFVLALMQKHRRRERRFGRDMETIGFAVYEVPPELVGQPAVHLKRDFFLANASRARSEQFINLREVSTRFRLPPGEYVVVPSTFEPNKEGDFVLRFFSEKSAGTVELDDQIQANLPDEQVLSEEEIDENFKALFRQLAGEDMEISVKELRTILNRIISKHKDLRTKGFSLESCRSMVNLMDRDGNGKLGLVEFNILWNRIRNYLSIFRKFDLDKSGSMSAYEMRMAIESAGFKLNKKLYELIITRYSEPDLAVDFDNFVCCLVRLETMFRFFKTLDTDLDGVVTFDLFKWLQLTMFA
T3 sequence (P04632 1-268 partner): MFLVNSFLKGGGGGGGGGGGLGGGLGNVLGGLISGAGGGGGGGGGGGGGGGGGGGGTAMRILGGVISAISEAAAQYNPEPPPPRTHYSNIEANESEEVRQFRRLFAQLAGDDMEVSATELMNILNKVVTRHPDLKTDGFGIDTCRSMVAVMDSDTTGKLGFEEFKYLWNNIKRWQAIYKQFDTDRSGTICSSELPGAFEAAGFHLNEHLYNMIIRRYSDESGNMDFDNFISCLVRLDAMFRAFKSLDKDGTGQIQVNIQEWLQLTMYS

[25] = target: T4, Caspase 2 (Homo sapiens, UniProt P42575); test: Protease panel: Caspase 2; format: biochemical
T4 construct: purchased Eurofins Discovery (assay service); host or cells: E. coli
T4 sequence (P42575 170-325 limits assumed): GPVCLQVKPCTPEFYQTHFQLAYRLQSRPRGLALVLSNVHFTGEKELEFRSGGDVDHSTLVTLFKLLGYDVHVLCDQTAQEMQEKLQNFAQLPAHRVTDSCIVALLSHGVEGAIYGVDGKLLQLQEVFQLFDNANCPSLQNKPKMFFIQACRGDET
T4 sequence (P42575 348-452 limits assumed): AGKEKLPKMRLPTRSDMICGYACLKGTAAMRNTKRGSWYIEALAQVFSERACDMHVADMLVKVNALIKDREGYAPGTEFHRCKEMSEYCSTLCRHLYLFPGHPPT

[26] = target: T5, Cathepsin D (Homo sapiens, UniProt P07339); test: Protease panel: Cathepsin D; format: biochemical
T5 construct: Human liver; tissue Eurofins Discovery (assay service); host or cells: human liver

[27] = target: T6, Neutrophil Elastase 2 (Homo sapiens, UniProt P08246); test: Protease panel: Neutrophil Elastase 2; format: biochemical
T6 construct: neutrophils; tissue Eurofins Discovery (assay service); host or cells: human neutrophils
T6 sequence (P08246 30-267): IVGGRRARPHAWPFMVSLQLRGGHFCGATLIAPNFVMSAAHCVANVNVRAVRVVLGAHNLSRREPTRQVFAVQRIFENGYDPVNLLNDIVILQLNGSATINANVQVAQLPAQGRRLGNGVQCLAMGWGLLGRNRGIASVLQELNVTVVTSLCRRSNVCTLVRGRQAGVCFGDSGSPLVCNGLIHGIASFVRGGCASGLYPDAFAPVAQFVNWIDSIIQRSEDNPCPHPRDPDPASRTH

[28] = % remaining at 120 min (hamster hepatocytes, compound/ritonavir 1:1)
[29] = % remaining at 120 min (hamster hepatocytes, compound/ritonavir 2:1)
[30] = CLint (hamster hepatocytes, compound/ritonavir 1:1)
[31] = CLint (hamster hepatocytes, compound/ritonavir 2:1)
[32] = t1/2 (hamster hepatocytes, compound/ritonavir 1:1)
[33] = t1/2 (hamster hepatocytes, compound/ritonavir 2:1)

T1 sequence (P07711 114-333): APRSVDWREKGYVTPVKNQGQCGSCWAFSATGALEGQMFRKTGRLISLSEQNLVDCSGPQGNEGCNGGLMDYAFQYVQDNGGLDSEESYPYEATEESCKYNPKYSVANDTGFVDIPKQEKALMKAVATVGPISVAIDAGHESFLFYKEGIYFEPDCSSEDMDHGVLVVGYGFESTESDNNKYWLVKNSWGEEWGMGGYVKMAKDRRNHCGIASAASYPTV
mouse cathepsin L (mCTSL), sequence (P06797 114-334): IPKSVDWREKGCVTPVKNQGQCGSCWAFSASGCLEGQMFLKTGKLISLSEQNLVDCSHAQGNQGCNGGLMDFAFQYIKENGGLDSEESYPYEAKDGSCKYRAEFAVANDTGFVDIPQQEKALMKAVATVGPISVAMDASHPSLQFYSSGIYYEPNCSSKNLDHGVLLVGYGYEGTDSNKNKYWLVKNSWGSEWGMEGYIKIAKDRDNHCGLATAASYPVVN
hamster CTSL, sequence (Q812A7 entry or part of it): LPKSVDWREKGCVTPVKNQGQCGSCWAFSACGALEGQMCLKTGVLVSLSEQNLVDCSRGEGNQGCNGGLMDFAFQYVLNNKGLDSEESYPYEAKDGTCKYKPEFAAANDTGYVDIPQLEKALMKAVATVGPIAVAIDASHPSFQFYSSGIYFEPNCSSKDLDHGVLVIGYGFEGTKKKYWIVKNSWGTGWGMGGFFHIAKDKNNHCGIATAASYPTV
T5 sequence (P07339 65-412): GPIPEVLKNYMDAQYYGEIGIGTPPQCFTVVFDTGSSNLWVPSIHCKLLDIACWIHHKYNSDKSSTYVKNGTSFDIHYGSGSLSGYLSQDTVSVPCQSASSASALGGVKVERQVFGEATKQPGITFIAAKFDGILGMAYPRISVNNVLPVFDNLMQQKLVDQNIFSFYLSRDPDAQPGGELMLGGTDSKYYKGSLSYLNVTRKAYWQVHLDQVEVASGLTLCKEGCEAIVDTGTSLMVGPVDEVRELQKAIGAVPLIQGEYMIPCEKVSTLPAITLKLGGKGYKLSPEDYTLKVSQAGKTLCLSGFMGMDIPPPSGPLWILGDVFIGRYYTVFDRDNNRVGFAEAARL
mouse cathepsin B (mCTSB), sequence (P10605 80-339): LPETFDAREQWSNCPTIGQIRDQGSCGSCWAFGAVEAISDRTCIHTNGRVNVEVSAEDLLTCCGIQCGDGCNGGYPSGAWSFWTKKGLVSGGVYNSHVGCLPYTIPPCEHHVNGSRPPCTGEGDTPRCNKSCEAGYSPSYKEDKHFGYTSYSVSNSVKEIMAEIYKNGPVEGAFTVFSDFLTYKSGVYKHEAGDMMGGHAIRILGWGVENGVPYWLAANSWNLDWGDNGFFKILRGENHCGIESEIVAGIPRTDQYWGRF

Compound | hCTSL biochemical assay pIC50 [1] | hCTSB biochemical assay pIC50 [2] | IC50 [3] [nM] | EC50 [6] [nM] | mouse plasma protein binding, fraction bound (Fb) [8] [%] | CC50 [9] [nM] | logD at 1 h [10] | solubility kinetic at 24 h [11] [µM] | fraction unbound at 3 h, 2 µM ([12]; fraction bound (Fb)) | fraction unbound at 3 h, 2 µM ([12]; fraction unbound (Fu)) | remaining at 2 h, 1 µM [14, 28] [%] | remaining at 2 h, 1 µM [14, 29] [%] | hepatocyte CLint at 2 h, 4 µM [14] [µL/min/1e6 cells] | hepatocyte CLint at 2 h, 2 µM [14] [µL/min/1e6 cells] | hepatocyte CLint at 1 µM [14, 30] [µL/min/1e6 cells] | hepatocyte CLint at 1 µM [14, 31] [µL/min/1e6 cells] | half-life at 2 h, 4 µM [14] [min] | half-life at 1 µM [14, 32] [min] | half-life at 1 µM [14, 33] [min] | microsomal CLint at 1 µM [15] [µL/min/mg] | further results
CC(C)(C)[C@H](NC(=O)C(F)(F)F)C(=O)N1C[C@H]2[C@@H]([C@H]1C(=O)N[C@@H](C[C@@H]1CCNC1=O)C(=O)COc1c(F)c(F)c(CO)c(F)c1F)C2(C)C [compound 7, (1R,2S,5S)-3-((S)-3,3-Dimethyl-2-(2,2,2-trifluoroacetamido)butanoyl)-6,6-dimethyl-N-((S)-3-oxo-1-((S)-2-oxopyrrolidin-3-yl)-4-(2,3,5,6-tetrafluoro-4-(hydroxymethyl)phenoxy)butan-2-yl)-3-azabicyclo[3.1.0]hexane-2-carboxamide] | < 4.30 | 4.82 | 35500 | 50.1 | 96.45 | > 501 | 2.82 | 71.3 (≈ 50.7 µg/mL) | 0.0355 | 0.0355 | 20.8 | 3.47 | 41.9 | 50.2 | 12.5 | 27.4 | 16.6 | 55.5 | 25.3 | 803 | hCTSL activity (in words) ([1]; biochemical assay): no hCTSL and hCTSB activity was observed; hCTSB activity (in words) ([2]; biochemical assay): no hCTSL and hCTSB activity was observed; IC50 [4]: 1860 nM; pIC50 (hamster CTSL) [5]: 5.07 ± 0.10; inhibition at 10 µM [7]: 0.4 ± 0.9%; hepatocyte CLint at 1 µM ([13]; CLint (mouse hepatocytes + ritonavir 4:1)): 21.8 µL/min/1e6 cells; hepatocyte CLint at 1 µM ([13]; CLint (mouse hepatocytes)): 121 µL/min/1e6 cells; remaining at 1 h, 1 µM [15]: 0.15%; Trypsin inhibition at 10 μM [16]: 9.9 ± 6.6%; half-life at 1 µM [17]: 14.3 min; half-life at 2 h, 2 µM [18]: 13.8 min; half-life at 1 µM [19]: 1.73 min
COc1cccc2[nH]c(C(=O)N[C@@H](Cc3cccc(F)c3)C(=O)N[C@@H](C[C@@H]3CCNC3=O)C(=O)COc3c(F)c(F)c(C(C)(C)O)c(F)c3F)cc12 [compound 10, N-((S)-3-(3-Fluorophenyl)-1-oxo-1-(((S)-3-oxo-1-((S)-2-oxopyrrolidin-3-yl)-4-(2,3,5,6-tetrafluoro-4-(2-hydroxypropan-2-yl)phenoxy)butan-2-yl)amino)propan-2-yl)-4-methoxy-1H-indole-2-carboxamide] | 6.95 | 5.94 | 933 | 120 | 98.95 | > 1260 | 3.15 | 3.65 (≈ 2.67 µg/mL) | 0.0105 | 0.0105 | 11.6 | 2.17 | 19.4 | 27.5 | 16.4 | 30.7 | 35.7 | 42.2 | 22.6 | 500 | IC50 [20]: 7.08 nM; EC50 [21]: 2040 nM; hepatocyte CLint at 2 h, 2 µM ([13]; CLint (mouse hepatocytes)): 47.6 µL/min/1e6 cells; microsomal CLint at 1 µM [22]: 780 µL/min/mg; remaining at 1 h, 1 µM [22]: 0%; remaining at 1 h, 1 µM [15]: 0%; half-life at 1 µM [17]: 36.4 min; half-life at 2 h, 2 µM [18]: 25.2 min; half-life at 1 µM [23]: 1.9 min; half-life at 1 µM [19]: 2.77 min
COc1cccc2[nH]c(C(=O)N[C@@H](Cc3cccc(F)c3)C(=O)N[C@@H](C[C@@H]3CCNC3=O)C(=O)COc3c(F)c(F)c(C(C)O)c(F)c3F)cc12 (stereo partly drawn) [compound 8, N-((2S)-3-(3-Fluorophenyl)-1-oxo-1-(((2S)-3-oxo-1-((S)-2-oxopyrrolidin-3-yl)-4-(2,3,5,6-tetrafluoro-4-(1-hydroxyethyl)phenoxy)butan-2-yl)amino)propan-2-yl)-4-methoxy-1H-indole-2-carboxamide] | 7.34 | 5.73 | 288 | 158 | 99.17 | > 1260 | 3.26 | 12.3 (≈ 8.81 µg/mL) | 0.0083 | 0.0083 | 7.05 | 2.78 | 29.7 | 33.1 | 22.6 | 31.7 | 23.3 | 30.7 | 21.9 | 1290 | IC50 [20]: 5.62 nM; pIC50 (hamster CTSL) [5]: 7.92 ± 0.18; EC50 [21]: 2880 nM; inhibition at 10 µM [24]: 5%; inhibition at 10 µM [25]: 20%; inhibition at 10 µM [26]: 9%; inhibition at 10 µM [27]: 2%; inhibition at 10 µM [7]: -0.2 ± 0.6%; hepatocyte CLint at 2 h, 2 µM ([13]; CLint (mouse hepatocytes)): 64.5 µL/min/1e6 cells; microsomal CLint at 1 µM [22]: 1100 µL/min/mg; remaining at 1 h, 1 µM [22]: 0%; remaining at 1 h, 1 µM [15]: 0%; Trypsin inhibition at 10 μM [16]: 7.5 ± 4.9%; half-life at 1 µM [17]: 26.9 min; half-life at 2 h, 2 µM [18]: 20.9 min; half-life at 1 µM [23]: 1.28 min; half-life at 1 µM [19]: 1.08 min
